# Measurements as given in patent US10787413B2, “Derivatives of curcuminoids and use thereof as an anticancer agent” (CHINA MEDICAL UNIVERSITY, priority 2016, dated 2020).
# Assays:
# [1] = tested on: MDA-MB-231 cells; experiment: cDNA microarray; format: cell-based, human
# Procedure: The cells were incubated with or without 21a. After exposure, cell pellets were collected, and the total RNA from each treatment was purified using the Qiagen RNeasy Mini Kit (Qiagen, Valencia, Calif., USA). The RNA purity was determined to check the quality at 260/280 nm using a NanoDrop 1000 Spectrophotometer (Thermo Fisher Scientific, Wilmington, Del., USA). mRNA was amplified and labeled using the Gene-Chip WT Sense Target Labeling and Control Reagents kit (Affymetrix, Santa Clara, Calif., USA) for expression analysis. The synthesized cDNA was labeled with fluorescence and then hybridized for 17 h using AffymetrixGeneChip Human Gene 1.0 ST array (Affymetrix) to determine microarray hybridization following the manufacturer's protocols. The arrays were subsequently washed using Fluidics Station 450 (Affymetrix), stained with streptavidin-phycoerythrin (Gene-Chip Hybridization, Wash, and Stain kit, Affymetrix), and scanned on a GeneChip Scanner 3000 (Affymetrix). The localized concentrations of fluorescent molecules were quantitated and analyzed using Expression Console Software (Affymetrix) with default RMA parameters as previously described (Chang et al. 2012; Liu et al. 2013). […]
# [2] = tested on: CDK1; experiment: CDK1 kinase assay on extracts of treated cells; format: cell-based, human; settings: 4-12 h of treatment
# Procedure: CDK1 kinase activity was analyzed according to the protocol of Medical & Biological Laboratories CDK1 kinase assay kit (MBL International, Nagoya, Japan). In brief; the ability of cell extract prepared from each treatment was measured to phosphorylate its specific substrate, MV Peptide as described previously^23.
compound,measurement,setting,value
"COc1cc(/C=C/C(=O)/C=C(O)/C=C/c2ccc(OC(=O)C(C)(CO)CO)c(OC)c2)ccc1OC(=O)C(C)(CO)CO [Compound 21a, ((1E,3Z,6E)-3-Hydroxy-5-oxohepta-1,3,6-triene-1,7-diyl)bis(2-methoxy-4,1-phenylene) bis(3-hydroxy-2-(hydroxymethyl)-2-methylpropenoate)]",log2 (Ratio) CTDSP1,"[1]; mRNA, MDA-MB-231 cells, 24-h treatment, ID PH_hs_0025966",−2.552
same,log2 (Ratio) RMND5A,"[1]; mRNA, MDA-MB-231 cells, 24-h treatment, ID PH_hs_0027152",3.038
same,log2 (Ratio) SLC3A2,"[1]; mRNA, MDA-MB-231 cells, 24-h treatment, ID PH_hs_0027162",2.961
same,log2 (Ratio) GADD45B,"[1]; mRNA, MDA-MB-231 cells, 24-h treatment, ID PH_hs_0027209",2.665
same,log2 (Ratio) FAM20C,"[1]; mRNA, MDA-MB-231 cells, 24-h treatment, ID PH_hs_0027843",−2.724
same,log2 (Ratio) LRRC45,"[1]; mRNA, MDA-MB-231 cells, 24-h treatment, ID PH_hs_0027863",−2.718
same,log2 (Ratio) ABL2,"[1]; mRNA, MDA-MB-231 cells, 24-h treatment, ID PH_hs_0027902",4.287
same,log2 (Ratio) CENPI,"[1]; mRNA, MDA-MB-231 cells, 24-h treatment, ID PH_hs_0028200",−2.537
same,log2 (Ratio) CCDC85B,"[1]; mRNA, MDA-MB-231 cells, 24-h treatment, ID PH_hs_0028915",−2.622
same,log2 (Ratio) TCF21,"[1]; mRNA, MDA-MB-231 cells, 24-h treatment, ID PH_hs_0028987",2.769
same,log2 (Ratio) AKR1C1,"[1]; mRNA, MDA-MB-231 cells, 24-h treatment, ID PH_hs_0029660",2.695
same,log2 (Ratio) FANCF,"[1]; mRNA, MDA-MB-231 cells, 24-h treatment, ID PH_hs_0030800",−2.553
same,log2 (Ratio) NFKBIB,"[1]; mRNA, MDA-MB-231 cells, 24-h treatment, ID PH_hs_0030976",2.516
same,log2 (Ratio) VIMP,"[1]; mRNA, MDA-MB-231 cells, 24-h treatment, ID PH_hs_0031143",3.213
same,log2 (Ratio) GNG2,"[1]; mRNA, MDA-MB-231 cells, 24-h treatment, ID PH_hs_0031540",−2.661
same,log2 (Ratio) CCL26,"[1]; mRNA, MDA-MB-231 cells, 24-h treatment, ID PH_hs_0031719",4.147
same,log2 (Ratio) SIK1,"[1]; mRNA, MDA-MB-231 cells, 24-h treatment, ID PH_hs_0033027",2.548
same,log2 (Ratio) DDIT3,"[1]; mRNA, MDA-MB-231 cells, 24-h treatment, ID PH_hs_0033101",3.556
same,log2 (Ratio) OMA1,"[1]; mRNA, MDA-MB-231 cells, 24-h treatment, ID PH_hs_0035337",−2.514
same,log2 (Ratio) SAT1,"[1]; mRNA, MDA-MB-231 cells, 24-h treatment, ID PH_hs_0035404",3.764
same,log2 (Ratio) AKR1C3|AKR1C1,"[1]; mRNA, MDA-MB-231 cells, 24-h treatment, ID PH_hs_0035466",2.962
same,log2 (Ratio) ETV1,"[1]; mRNA, MDA-MB-231 cells, 24-h treatment, ID PH_hs_0035609",−2.788
same,log2 (Ratio) RC3H1,"[1]; mRNA, MDA-MB-231 cells, 24-h treatment, ID PH_hs_0035614",3.063
same,log2 (Ratio) GDF15,"[1]; mRNA, MDA-MB-231 cells, 24-h treatment, ID PH_hs_0035765",3.427
same,log2 (Ratio) PIF1,"[1]; mRNA, MDA-MB-231 cells, 24-h treatment, ID PH_hs_0036878",−2.714
same,log2 (Ratio) MALAT1,"[1]; mRNA, MDA-MB-231 cells, 24-h treatment, ID PH_hs_0037242",2.683
same,log2 (Ratio) MALAT1,"[1]; mRNA, MDA-MB-231 cells, 24-h treatment, ID PH_hs_0037472",3.48
same,log2 (Ratio) LOC100134259,"[1]; mRNA, MDA-MB-231 cells, 24-h treatment, ID PH_hs_0038982",−2.503
same,log2 (Ratio) MXD3,"[1]; mRNA, MDA-MB-231 cells, 24-h treatment, ID PH_hs_0040619",−2.891
same,log2 (Ratio) DUSP5,"[1]; mRNA, MDA-MB-231 cells, 24-h treatment, ID PH_hs_0042225",2.541
same,log2 (Ratio) MT4,"[1]; mRNA, MDA-MB-231 cells, 24-h treatment, ID PH_hs_0042334",3.931
same,log2 (Ratio) DNAJB1,"[1]; mRNA, MDA-MB-231 cells, 24-h treatment, ID PH_hs_0042409",2.767
same,log2 (Ratio) HMGCS1,"[1]; mRNA, MDA-MB-231 cells, 24-h treatment, ID PH_hs_0043719",2.895
same,log2 (Ratio) CLK1,"[1]; mRNA, MDA-MB-231 cells, 24-h treatment, ID PH_hs_0044272",2.829
same,log2 (Ratio) HSPA1A,"[1]; mRNA, MDA-MB-231 cells, 24-h treatment, ID PH_hs_0044921",2.535
same,log2 (Ratio) EID3,"[1]; mRNA, MDA-MB-231 cells, 24-h treatment, ID PH_hs_0045501",4.039
same,log2 (Ratio) SLC6A6,"[1]; mRNA, MDA-MB-231 cells, 24-h treatment, ID PH_hs_0045838",2.838
same,log2 (Ratio) RN7SK,"[1]; mRNA, MDA-MB-231 cells, 24-h treatment, ID PH_hs_0046245",4.763
same,log2 (Ratio) MARCKS,"[1]; mRNA, MDA-MB-231 cells, 24-h treatment, ID PH_hs_0047352",−3.043
same,log2 (Ratio) PDP1,"[1]; mRNA, MDA-MB-231 cells, 24-h treatment, ID PH_hs_0047571",−2.547
same,log2 (Ratio) ARF6,"[1]; mRNA, MDA-MB-231 cells, 24-h treatment, ID PH_hs_0047697",−2.688
same,log2 (Ratio) PHLDA1,"[1]; mRNA, MDA-MB-231 cells, 24-h treatment, ID PH_hs_0047965",−2.959
same,log2 (Ratio) MYCT1,"[1]; mRNA, MDA-MB-231 cells, 24-h treatment, ID PH_hs_0048553",3.866
same,log2 (Ratio) FKBP4,"[1]; mRNA, MDA-MB-231 cells, 24-h treatment, ID PH_hs_0048881",2.809
same,log2 (Ratio) NRP1,"[1]; mRNA, MDA-MB-231 cells, 24-h treatment, ID PH_hs_0048993",−2.677
same,log2 (Ratio) GPR39,"[1]; mRNA, MDA-MB-231 cells, 24-h treatment, ID PH_hs_0049449",−2.73
same,log2 (Ratio) HSPA6,"[1]; mRNA, MDA-MB-231 cells, 24-h treatment, ID PH_hs_0049600",6.644
same,log2 (Ratio) ZNF121,"[1]; mRNA, MDA-MB-231 cells, 24-h treatment, ID PH_hs_0060053",2.575
same,log2 (Ratio) TRIB3,"[1]; mRNA, MDA-MB-231 cells, 24-h treatment, ID PH_hs_0060828",2.735
same,log2 (Ratio) ZBTB21,"[1]; mRNA, MDA-MB-231 cells, 24-h treatment, ID PH_hs_0061012",2.731
same,log2 (Ratio) AKR1C1|LOC101060798,"[1]; mRNA, MDA-MB-231 cells, 24-h treatment, ID PH_hs_0062199",3.357
same,log2 (Ratio) CDKN1A,"[1]; mRNA, MDA-MB-231 cells, 24-h treatment, ID PH_hs_p061784",2.967
same,genes expressed at least by 2.5 folds compared with untreated control,[1]; total,97 genes
same,CDK1 activity,[2],significant decrease
